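GI50: concentration for 50% inhibition of growth. TGI: concentration producing complete growth inhibition.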
Key:
Assay in all cases: inhibition of tumour cell growth, NCI panel, 384-well format
EKVX NSCLC = tested on: EKVX NSCLC
NCI-H522 lung = tested on: NCI-H522 lung
A549 NSCLC = tested on: A549 NSCLC
M14 melanoma = tested on: M14 melanoma
HL-60(TB) leukemia = tested on: HL-60(TB) leukemia
HCC-2998 colon = tested on: HCC-2998 colon
MALME-3M melanoma = tested on: MALME-3M melanoma
SNB-75 CNS = tested on: SNB-75 CNS
SK-MEL-28 melanoma = tested on: SK-MEL-28 melanoma
OVCAR-8 ovarian = tested on: OVCAR-8 ovarian
COLO 205 colon = tested on: COLO 205 colon
NCI-H23 lung = tested on: NCI-H23 lung
HOP-62 NSCLC = tested on: HOP-62 NSCLC
MDA-MB-231 breast = tested on: MDA-MB-231 breast
MOLT-4 leukemia = tested on: MOLT-4 leukemia
MDA-MB-468 breast = tested on: MDA-MB-468 breast
SK-MEL-5 melanoma = tested on: SK-MEL-5 melanoma
SN12C renal = tested on: SN12C renal
BT-549 breast = tested on: BT-549 breast
MDA-MB-435 melanoma = tested on: MDA-MB-435 melanoma
KM12 colon = tested on: KM12 colon
SF-539 CNS = tested on: SF-539 CNS
NCI/ADR-RES ovarian = tested on: NCI/ADR-RES ovarian
UACC-62 melanoma = tested on: UACC-62 melanoma
OVCAR-5 ovarian = tested on: OVCAR-5 ovarian
HCT-116 colon = tested on: HCT-116 colon
U251 glioblastoma = tested on: U251 glioblastoma
UACC-257 melanoma = tested on: UACC-257 melanoma
NCI-H322M lung = tested on: NCI-H322M lung
LOX IMVI melanoma = tested on: LOX IMVI melanoma
NCI-H460 NSCLC = tested on: NCI-H460 NSCLC
SR leukemia = tested on: SR leukemia
HS 578T breast = tested on: HS 578T breast
RPMI-8226 leukemia = tested on: RPMI-8226 leukemia
SF-268 CNS = tested on: SF-268 CNS
SF-295 CNS = tested on: SF-295 CNS
CAKI-1 renal = tested on: CAKI-1 renal
MCF7 breast = tested on: MCF7 breast
SK-OV-3 ovarian = tested on: SK-OV-3 ovarian
OVCAR-4 ovarian = tested on: OVCAR-4 ovarian
OVCAR-3 ovarian = tested on: OVCAR-3 ovarian

Q: For `C[C@@H](O)[C@@H](C)Oc1nc(Nc2ccc(S(=N)(=O)C3CC3)cc2)ncc1C(F)(F)F` (some centres not stated), which GI50 (EKVX NSCLC) is on record?
A: The GI50 was 23.8 nM.

Q: And the TGI (EKVX NSCLC)?
A: Its TGI is 52 nM.

Q: What about the GI50 (NCI-H522 lung) of the same compound?
A: Its GI50 is less than 10 nM.

Q: What about the TGI (NCI-H522 lung) of the same compound?
A: Its TGI is 24.9 nM.

Q: What about the GI50 (A549 NSCLC) of the same compound?
A: Its GI50 is 33.4 nM.

Q: And the TGI (A549 NSCLC)?
A: The TGI was greater than 100000 nM.

Q: What about the GI50 (M14 melanoma) of the same compound?
A: Its GI50 is 19.7 nM.

Q: And the TGI (M14 melanoma)?
A: Its TGI is 85.2 nM.

Q: What about the GI50 (HL-60(TB) leukemia) of the same compound?
A: The GI50 was less than 10 nM.

Q: What about the TGI (HL-60(TB) leukemia) of the same compound?
A: Its TGI is 20.7 nM.

Q: And the GI50 (HCC-2998 colon)?
A: Its GI50 is 12 nM.

Q: And the TGI (HCC-2998 colon)?
A: The TGI was 33.3 nM.

Q: What about the GI50 (MALME-3M melanoma) of the same compound?
A: Its GI50 is 23.5 nM.

Q: And the TGI (MALME-3M melanoma)?
A: Its TGI is 46.6 nM.

Q: What about the GI50 (SNB-75 CNS) of the same compound?
A: The GI50 was 16.4 nM.

Q: What about the TGI (SNB-75 CNS) of the same compound?
A: Its TGI is 33 nM.

Q: What about the GI50 (SK-MEL-28 melanoma) of the same compound?
A: The GI50 was 16.4 nM.

Q: What about the TGI (SK-MEL-28 melanoma) of the same compound?
A: The TGI was 39.5 nM.

Q: And the GI50 (OVCAR-8 ovarian)?
A: Its GI50 is 18.8 nM.

Q: And the TGI (OVCAR-8 ovarian)?
A: The TGI was 73.7 nM.

Q: What about the GI50 (COLO 205 colon) of the same compound?
A: Its GI50 is 16.4 nM.

Q: What about the TGI (COLO 205 colon) of the same compound?
A: The TGI was 42.6 nM.

Q: And the GI50 (NCI-H23 lung)?
A: Its GI50 is 17.1 nM.

Q: And the TGI (NCI-H23 lung)?
A: The TGI was 36.1 nM.

Q: What about the GI50 (HOP-62 NSCLC) of the same compound?
A: Its GI50 is 14.4 nM.

Q: And the TGI (HOP-62 NSCLC)?
A: Its TGI is 44.8 nM.

Q: What about the GI50 (MDA-MB-231 breast) of the same compound?
A: Its GI50 is 28.3 nM.

Q: What about the TGI (MDA-MB-231 breast) of the same compound?
A: The TGI was greater than 100000 nM.

Q: What about the GI50 (MOLT-4 leukemia) of the same compound?
A: Its GI50 is 20.2 nM.

Q: And the TGI (MOLT-4 leukemia)?
A: Its TGI is 35 nM.

Q: What about the GI50 (MDA-MB-468 breast) of the same compound?
A: Its GI50 is 15.9 nM.

Q: And the TGI (MDA-MB-468 breast)?
A: The TGI was 30.2 nM.

Q: And the GI50 (SK-MEL-5 melanoma)?
A: Its GI50 is less than 10 nM.

Q: And the TGI (SK-MEL-5 melanoma)?
A: The TGI was 21.5 nM.

Q: And the GI50 (SN12C renal)?
A: The GI50 was 16.6 nM.

Q: And the TGI (SN12C renal)?
A: The TGI was 36.4 nM.

Q: And the GI50 (BT-549 breast)?
A: The GI50 was 12.4 nM.

Q: And the TGI (BT-549 breast)?
A: The TGI was 27.1 nM.

Q: What about the GI50 (MDA-MB-435 melanoma) of the same compound?
A: Its GI50 is 23.3 nM.

Q: And the TGI (MDA-MB-435 melanoma)?
A: The TGI was 64.5 nM.

Q: What about the GI50 (KM12 colon) of the same compound?
A: Its GI50 is 23.4 nM.

Q: And the TGI (KM12 colon)?
A: The TGI was greater than 100000 nM.

Q: What about the GI50 (SF-539 CNS) of the same compound?
A: The GI50 was 17.9 nM.

Q: And the TGI (SF-539 CNS)?
A: Its TGI is 36.4 nM.

Q: And the GI50 (NCI/ADR-RES ovarian)?
A: The GI50 was 67.3 nM.

Q: What about the TGI (NCI/ADR-RES ovarian) of the same compound?
A: The TGI was 406 nM.

Q: And the GI50 (UACC-62 melanoma)?
A: Its GI50 is 12.7 nM.

Q: And the TGI (UACC-62 melanoma)?
A: Its TGI is 27.9 nM.

Q: And the GI50 (OVCAR-5 ovarian)?
A: Its GI50 is 16.8 nM.

Q: And the TGI (OVCAR-5 ovarian)?
A: The TGI was 54.5 nM.

Q: And the GI50 (HCT-116 colon)?
A: The GI50 was 12.5 nM.

Q: And the TGI (HCT-116 colon)?
A: The TGI was greater than 100000 nM.

Q: What about the GI50 (U251 glioblastoma) of the same compound?
A: Its GI50 is 20.2 nM.

Q: What about the TGI (U251 glioblastoma) of the same compound?
A: Its TGI is 60 nM.

Q: What about the GI50 (UACC-257 melanoma) of the same compound?
A: The GI50 was 17.7 nM.

Q: What about the TGI (UACC-257 melanoma) of the same compound?
A: Its TGI is 37.2 nM.

Q: And the GI50 (NCI-H322M lung)?
A: Its GI50 is 21.2 nM.

Q: And the TGI (NCI-H322M lung)?
A: Its TGI is 46.7 nM.

Q: And the GI50 (LOX IMVI melanoma)?
A: The GI50 was 14.6 nM.

Q: What about the TGI (LOX IMVI melanoma) of the same compound?
A: The TGI was 48.9 nM.

Q: What about the GI50 (NCI-H460 NSCLC) of the same compound?
A: Its GI50 is 12 nM.

Q: What about the TGI (NCI-H460 NSCLC) of the same compound?
A: Its TGI is 28.5 nM.

Q: And the GI50 (SR leukemia)?
A: The GI50 was less than 10 nM.

Q: What about the TGI (SR leukemia) of the same compound?
A: The TGI was 13.2 nM.

Q: What about the GI50 (HS 578T breast) of the same compound?
A: Its GI50 is 24.4 nM.

Q: And the TGI (HS 578T breast)?
A: The TGI was 62.8 nM.

Q: What about the GI50 (RPMI-8226 leukemia) of the same compound?
A: The GI50 was 15.2 nM.

Q: What about the TGI (RPMI-8226 leukemia) of the same compound?
A: Its TGI is 28.9 nM.

Q: And the GI50 (SF-268 CNS)?
A: The GI50 was 20.1 nM.

Q: And the TGI (SF-268 CNS)?
A: The TGI was 58.6 nM.

Q: What about the GI50 (SF-295 CNS) of the same compound?
A: The GI50 was 30.9 nM.

Q: And the TGI (SF-295 CNS)?
A: Its TGI is greater than 100000 nM.

Q: What about the GI50 (CAKI-1 renal) of the same compound?
A: Its GI50 is 32.2 nM.

Q: What about the TGI (CAKI-1 renal) of the same compound?
A: Its TGI is greater than 100000 nM.

Q: What about the GI50 (MCF7 breast) of the same compound?
A: The GI50 was 24.1 nM.

Q: And the TGI (MCF7 breast)?
A: Its TGI is greater than 100000 nM.

Q: And the GI50 (SK-OV-3 ovarian)?
A: The GI50 was 41.7 nM.

Q: And the TGI (SK-OV-3 ovarian)?
A: The TGI was greater than 100000 nM.

Q: And the GI50 (OVCAR-4 ovarian)?
A: Its GI50 is 21.3 nM.

Q: What about the TGI (OVCAR-4 ovarian) of the same compound?
A: The TGI was 56.9 nM.

Q: And the GI50 (OVCAR-3 ovarian)?
A: The GI50 was 18.2 nM.

Q: And the TGI (OVCAR-3 ovarian)?
A: The TGI was 43.9 nM.

Source: PubChem BioAssay (NCI)
